Tested on: HCV genotype 1b replicon
Test: HCV replicon assay (1b_Huh-Luc/Neo-ET cell line, luciferase readout)
Assay type: cell-based
Conditions: Hepatitis C virus, Huh-7, 72 h, read-out: Inhibition of HCV genotype 1b
Method in brief: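 1b_Huh-Luc/Neo-ET Huh 7 cells carrying a bicistronic genotype 1b replicon; compounds added in triplicate the day after plating, 72 h incubation, then Bright-Glo luciferase read-out. Signal expressed as % of control; EC50 from curve fit, repeated several times.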

| Structure (SMILES) | EC50 |
| --- | --- |
| COC(=O)N[C@H](C(=O)N1CCC[C@H]1c1ncc(-c2ccc3cc(-c4ccc5nc([C@@H]6CCCN6C(=O)[C@@H](NC(=O)OC)[C@@H](C)OC)[nH]c5c4)ccc3c2)[nH]1)[C@@H](C)OC [compound 176] | < 1 nM |
| COC(=O)N[C@H](C(=O)N1CCC[C@H]1c1ncc(-c2ccc3cc(-c4ccc5nc([C@@H]6CCCN6C(=O)[C@@H](c6ccccc6)N(C)C)[nH]c5c4)ccc3c2)[nH]1)C(C)C [compound 177] | < 1 nM |
| COC(=O)N[C@H](C(=O)N1CCC[C@H]1c1nc2ccc(-c3ccc4cc(-c5cnc([C@@H]6CCCN6C(=O)[C@@H](c6ccccc6)N6CCCC6)[nH]5)ccc4c3)cc2[nH]1)C(C)C [compound 178] | < 1 nM |
| COC(=O)N[C@H](C(=O)N1CCC[C@H]1c1nc2ccc(-c3ccc4cc(-c5cnc([C@@H]6CCCN6C(=O)[C@H](NC(=O)OC)c6ccccc6)[nH]5)ccc4c3)cc2[nH]1)C(C)C [compound 179] | < 1 nM |
| COC(=O)N[C@H](C(=O)N1CCC[C@H]1c1ncc(-c2ccc3cc(-c4ccc5nc([C@@H]6CCCN6C(=O)[C@@H](c6ccccc6)N6CCCC6)[nH]c5c4)ccc3c2)[nH]1)C(C)C [compound 180] | < 1 nM |
| COC(=O)N[C@H](C(=O)N1CCC[C@H]1c1ncc(-c2ccc3cc(-c4ccc5nc([C@@H]6CCCN6C(=O)[C@H](NC(=O)OC)c6ccccc6)[nH]c5c4)ccc3c2)[nH]1)C(C)C [compound 181] | < 1 nM |
| COC(=O)N[C@H](C(=O)N1CCC[C@H]1c1nc2ccc(-c3ccc4cc(-c5cnc([C@@H]6CCCN6C(=O)[C@@H](c6ccccc6)N(C)C)[nH]5)ccc4c3)cc2[nH]1)C(C)C [compound 182] | < 1 nM |
| COC(=O)N[C@H](C(=O)N1CCC[C@H]1c1nc2ccc(-c3ccc4cc(-c5cnc([C@@H]6CCCN6C(=O)[C@H](NC(=O)N6CC[C@H](O)C6)c6ccccc6)[nH]5)ccc4c3)cc2[nH]1)C(C)C [compound 183] | < 1 nM |
| COC(=O)N[C@H](C(=O)N1CCC[C@H]1c1ncc(-c2ccc3cc(-c4ccc5nc([C@@H]6CCCN6C(=O)[C@H](NC(=O)N6CC[C@H](O)C6)c6ccccc6)[nH]c5c4)ccc3c2)[nH]1)C(C)C [compound 185] | < 1 nM |
| CNC(=O)N[C@@H](C(=O)N1CCC[C@H]1c1ncc(-c2ccc3cc(-c4ccc5nc([C@@H]6CCCN6C(=O)[C@@H](NC(=O)OC)C(C)C)[nH]c5c4)ccc3c2)[nH]1)c1ccccc1 [compound 186] | < 1 nM |
| COC(=O)N[C@H](C(=O)N1CCC[C@H]1c1ncc(-c2cnc3cc(-c4ccc5nc([C@@H]6CCCN6C(=O)[C@@H](NC(=O)OC)C(C)C)[nH]c5c4)ccc3c2)[nH]1)C(C)C [compound 187] | < 1 nM |
| COC(=O)N[C@H](C(=O)N1CCC[C@H]1c1ncc(-c2cnc3cc(-c4ccc5nc([C@@H]6CCCN6C(=O)[C@H](NC(=O)OC)c6ccccc6)[nH]c5c4)ccc3c2)[nH]1)C(C)C [compound 188] | 1 to 9.9 nM |
| COC(=O)N[C@H](C(=O)N1CCC[C@H]1c1ncc(-c2ccc3cc(-c4ccc5nc([C@@H]6CCCN6C(=O)[C@@H](NC(=O)OC)C6CCOCC6)[nH]c5c4)ccc3c2)[nH]1)C(C)C [compound 189] | < 1 nM |
| COC(=O)N[C@H](C(=O)N1CCC[C@H]1c1nc2ccc(-c3ccc4cc(-c5cnc([C@@H]6CCCN6C(=O)[C@@H](NC(=O)OC)C6CCOCC6)[nH]5)ccc4c3)cc2[nH]1)C(C)C [compound 190] | < 1 nM |
| COC(=O)N[C@H](C(=O)N1CCC[C@H]1c1nc2ccc(-c3ccc4cc(-c5cnc([C@@H]6CCCN6C(=O)[C@@H](NC(=O)OC)C6CCOCC6)[nH]5)cnc4c3)cc2[nH]1)C(C)C [compound 191] | < 1 nM |
| COC(=O)N[C@H](C(=O)N1CCC[C@H]1c1ncc(-c2cnc3cc(-c4ccc5nc([C@@H]6CCCN6C(=O)[C@@H](NC(=O)OC)C6CCOCC6)[nH]c5c4)ccc3c2)[nH]1)C(C)C [compound 192] | < 1 nM |
| COC(=O)N[C@H](C(=O)N1CCC[C@H]1c1ncc(-c2ccc3nc(-c4ccc5nc([C@@H]6CCCN6C(=O)[C@@H](NC(=O)OC)C(C)C)[nH]c5c4)ccc3c2)[nH]1)C(C)C [compound 193] | < 1 nM |
| COC(=O)N[C@H](C(=O)N1CCC[C@H]1c1nc2ccc(-c3ccc4cc(-c5cnc([C@@H]6CCCN6C(=O)[C@@H](NC(=O)OC)C6CCOCC6)[nH]5)ccc4n3)cc2[nH]1)C(C)C [compound 194] | < 1 nM |
| COC(=O)N[C@H](C(=O)N1CCC[C@H]1c1nc2ccc(-c3ccc4cc(-c5cnc([C@@H]6CCCN6C(=O)[C@H](NC(=O)OC)c6ccccc6)[nH]5)cnc4c3)cc2[nH]1)C(C)C [compound 195] | < 1 nM |
| COC(=O)N[C@H](C(=O)N1CCC[C@H]1c1nc2ccc(-c3ccc4cc(-c5cnc([C@@H]6CCCN6C(=O)[C@H](NC(=O)OC)c6ccccc6)[nH]5)ccc4n3)cc2[nH]1)C(C)C [compound 196] | < 1 nM |
| COC(=O)N[C@H](C(=O)N1CCC[C@H]1c1ncc(-c2ccc3nc(-c4ccc5nc([C@@H]6CCCN6C(=O)[C@H](NC(=O)OC)c6ccccc6)[nH]c5c4)ccc3c2)[nH]1)C(C)C [compound 197] | < 1 nM |

| Structure (SMILES) | EC50 |
| --- | --- |
| COC(=O)N[C@H](C(=O)N1CCC[C@H]1c1ncc(-c2ccc3cc(-c4ccc5nc([C@@H]6CCCN6C(=O)[C@@H](NC(=O)OC)C(C)C)[nH]c5n4)ccc3c2)[nH]1)C(C)C [compound 198] | < 1 nM |
| COC(=O)N[C@H](C(=O)N1CCC[C@H]1c1ncc(-c2ccc3cc(-c4ccc5nc([C@@H]6CCCN6C(=O)[C@H](NC(=O)OC)c6ccccc6)[nH]c5n4)ccc3c2)[nH]1)C(C)C [compound 199] | < 1 nM |
| COC(=O)N[C@H](C(=O)N1CCC[C@H]1c1nc2ccc(-c3ccc4cc(-c5cnc([C@@H]6CCCN6C(=O)[C@H](NC(=O)OC)c6ccccc6)[nH]5)ccc4c3)nc2[nH]1)C(C)C [compound 200] | < 1 nM |
| COC(=O)N[C@H](C(=O)N1CCC[C@H]1c1nc2ccc(-c3ccc4cc(-c5cnc([C@@H]6CCCN6C(=O)[C@@H](NC(=O)OC)C6CCOCC6)[nH]5)ccc4c3)nc2[nH]1)C(C)C [compound 201] | < 1 nM |
| COC(=O)N[C@H](C(=O)N1CCC[C@H]1c1ncc(-c2ccc3cc(-c4ccc5nc([C@@H]6CCCN6C(=O)[C@@H](NC(=O)OC)C6CCOCC6)[nH]c5n4)ccc3c2)[nH]1)C(C)C [compound 202] | < 1 nM |
| COC(=O)N[C@H](C(=O)N1CCC[C@H]1c1ncc(-c2ccc3cc(-c4ccc5nc([C@@H]6CCCN6C(=O)[C@@H](NC(=O)OC)C6CCOCC6)[nH]c5c4)ccc3c2)[nH]1)C1CCOCC1 [compound 203] | < 1 nM |
| COC(=O)N[C@H](C(=O)N1CCC[C@H]1c1ncc(-c2ccc3cc(-c4ccc5nc([C@@H]6CCCN6C(=O)[C@@H](NC(=O)OC)C(C)C)[nH]c5c4)ncc3c2)[nH]1)C(C)C [compound 204] | < 1 nM |
| COC(=O)N[C@H](C(=O)N1CCC[C@H]1c1ncc(-c2ccc3cc(-c4ccc5nc([C@@H]6CCCN6C(=O)[C@@H](NC(=O)OC)C6CCOCC6)[nH]c5n4)ccc3c2)[nH]1)C1CCOCC1 [compound 205] | < 1 nM |
| COC(=O)N[C@H](C(=O)N1CCC[C@H]1c1ncc(-c2ccc3nc(-c4ccc5nc([C@@H]6CCCN6C(=O)[C@@H](NC(=O)OC)C6CCOCC6)[nH]c5c4)ccc3c2)[nH]1)C1CCOCC1 [compound 206] | 1 to 9.9 nM |
| COC(=O)N[C@H](C(=O)N1CCC[C@H]1c1ncc(-c2cccc3c(-c4ccc5nc([C@@H]6CCCN6C(=O)[C@@H](NC(=O)OC)C(C)C)[nH]c5c4)cccc23)[nH]1)C(C)C [compound 207] | < 1 nM |
| COC(=O)N[C@H](C(=O)N1CCC[C@H]1c1nc2ccc(-c3cccc4c(-c5cnc([C@@H]6CCCN6C(=O)[C@H](NC(=O)OC)c6ccccc6)[nH]5)cccc34)cc2[nH]1)C(C)C [compound 208] | < 1 nM |
| COC(=O)N[C@H](C(=O)N1CCC[C@H]1c1ncc(-c2ccc3cc(-c4ccc5nc([C@@H]6CCCN6C(=O)[C@@H](NC(=O)OC)C(C)C)[nH]c5c4)ccc3n2)[nH]1)C(C)C [compound 209] | < 1 nM |
| COC(=O)N[C@H](C(=O)N1CCC[C@H]1c1nc2ccc(-c3ccc4nc(-c5cnc([C@@H]6CCCN6C(=O)[C@H](NC(=O)OC)c6ccccc6)[nH]5)ccc4c3)cc2[nH]1)C(C)C [compound 210] | < 1 nM |
| COC(=O)N[C@H](C(=O)N1CCC[C@H]1c1nc2ccc(-c3ccc4nc(-c5cnc([C@@H]6CCCN6C(=O)[C@@H](NC(=O)OC)C6CCOCC6)[nH]5)ccc4c3)cc2[nH]1)C(C)C [compound 211] | < 1 nM |
| COC(=O)N[C@H](C(=O)N1CCC[C@H]1c1nc2ccc(-c3ccc4cc(-c5cnc([C@@H]6CCCN6C(=O)[C@H](NC(=O)OC)c6ccccc6)[nH]5)ccc4c3)cc2[nH]1)C1CCOCC1 [compound 212] | < 1 nM |
| COC(=O)N[C@H](C(=O)N1CCC[C@H]1c1ncc(-c2ccc3cc(-c4ccc5nc([C@@H]6CCCN6C(=O)[C@@H](c6ccccc6)N6CCOCC6)[nH]c5c4)ccc3c2)[nH]1)C(C)C [compound 213] | < 1 nM |
| COC(=O)N[C@H](C(=O)N1CCC[C@H]1c1ncc(-c2ccc3c(-c4ccc5[nH]c([C@@H]6CCCN6C(=O)[C@@H](NC(=O)OC)C(C)C)nc5c4)cccc3c2)[nH]1)C(C)C [compound 214] | 10 to 999 nM |
| COC(=O)N[C@H](C(=O)N1CCC[C@H]1c1nc2ccc(-c3cccc4c(-c5cnc([C@@H]6CCCN6C(=O)[C@@H](NC(=O)OC)C6CCOCC6)[nH]5)cccc34)cc2[nH]1)C(C)C [compound 215] | < 1 nM |
| COC(=O)N[C@H](C(=O)N1CCC[C@H]1c1nc2ccc(-c3cc4ccc(-c5cnc([C@@H]6CCCN6C(=O)[C@@H](NC(=O)OC)C6CCOCC6)[nH]5)cc4cn3)cc2[nH]1)C(C)C [compound 216] | < 1 nM |
| COC(=O)N[C@H](C(=O)N1CCC[C@H]1c1ncc(-c2ccc3cc(-c4ccc5nc([C@@H]6CCCN6C(=O)[C@@H](NC(=O)OC)C6CCOCC6)[nH]c5c4)ncc3c2)[nH]1)C1CCOCC1 [compound 217] | 1 to 9.9 nM |
| COC(=O)N[C@H](C(=O)N1CCC[C@H]1c1ncc(-c2ccc3cc(-c4ccc5nc([C@@H]6CCCN6C(=O)[C@@H](NC(=O)OC)C6CCCC6)[nH]c5c4)ccc3c2)[nH]1)C1CCCC1 [compound 218] | < 1 nM |

Source: patent US8618151B2, “Inhibitors of HCV NS5A” (Presidio Pharmaceuticals, Inc., priority 2008, dated 2013)
